Reference: patent US20160108039A1, “TRIAZOLOPYRIDINES AS THROMBIN INHIBITORS FOR THE TREATMENT OF THROMBOEMBOLIC DISEASES” (BAYER PHARMA AKTIENGESELLSCHAFT, priority 2013, published 2016)

Experiments:
thrombin [1] = target: T1, thrombin (Homo sapiens, UniProt P00734); test: Measurement of the thrombin inhibition in buffer; type: biochemical; settings: human thrombin 0.06 nmol/l in Tris buffer pH 7.4, 22° C., substrate Boc-Asp(OBzl)-Pro-Arg-AMC; in some cases means of individual determinations
Experimental: To determine the thrombin inhibition of the substances listed above, a biochemical test system is constructed in which the conversion of a thrombin substrate is used for determining the enzymatic activity of human thrombin. Here, thrombin cleaves aminomethylcoumarin, which is measured fluorescently, from the peptic substrate. The determinations are carried out in microtitre plates.
Substances to be tested are dissolved in various concentrations in dimethyl sulphoxide and incubated for 15 min with human thrombin (0.06 nmol/l dissolved in 50 mmol/l of Tris buffer [C,C,C-tris(hydroxymethyl)aminomethane], 100 mmol/l of sodium chloride, 0.1% BSA [bovine serum albumin], pH 7.4) at 22° C. The substrate (5 μmol/l Boc-Asp(OBzl)-Pro-Arg-AMC from Bachem) is then added. After 30 min of incubation, the sample is excited at a wavelength of 360 nm and the emission is measured at 460 nm. The measured emissions of the test mixtures with test substance are compared to the control mixtures without test substance (only dimethyl sulphoxide instead of test substance in dimethyl sulphoxide) and IC50 values are calculated from the concentration/activity relationships. Representative activity data from this test are given in Table 1 below (in some cases as means of individual determinations): […]

thrombin [2] = target: T1, thrombin; test: Thrombin-inhibitory activity in plasma samples (ecarin-activated); type: biochemical; settings: citrate plasma, ecarin activation, fluorogenic thrombin substrate; read at about 70% of maximum signal (about 12 min); in some cases means
Experimental: To determine the inhibition of thrombin in plasma samples, plasma prothrombinase is activated by ecarin. Thrombin activity and/or its inhibition by potential inhibitors is/are then measured fluorescently by addition of a substrate.
The substances to be tested are dissolved in various concentrations in dimethyl sulphoxide and diluted with water. In white 96-well flat-bottomed plates, 20 μl of substance dilution are mixed with 20 μl of ecarin solution (ecarin reagent, from Sigma E-0504, final concentration 20 mU per reaction) in Ca buffer (200 mM Hepes+560 mM sodium chloride+10 mM calcium chloride+0.4% PEG) or with 20 μl of Ca buffer (as unstimulated control). Furthermore, 20 μl of fluorogenic thrombin substrate (from Bachem 1-1120, final concentration 50 μmol/l) and 20 μl of citrate plasma (from Octapharma) are added, and the mixture is homogenized well. The plate is measured in a SpectraFluorplus Reader using a 360 nm excitation filter and a 465 nm emission filter every minute over 20 minutes. […] Representative activity data from this test are given in Table 2 below (in some cases as means of individual determinations): […]

| Compound | IC50 (thrombin [1]) [nM] | IC50 (thrombin [2]) [nM] |
| --- | --- | --- |
| COc1cc(C(=O)N2CC(C)(C)OCC2(C)CO)cn2nc(NCc3cccc(Cl)c3)nc12 (racemic) [Example 8, {2-[(3-Chlorobenzyl)amino]-8-methoxy[1,2,4]triazolo[1,5-a]pyridin-6-yl}[5-(hydroxymethyl)-2,2,5-trimethylmorpholin-4-yl]methanone] | 20 | 29 |
| COCC1COC(C)(C)CN1C(=O)c1cc(OC)c2nc(NCc3cccc(Cl)c3)nn2c1 (racemic) [Example 11, {2-[(3-Chlorobenzyl)amino]-8-methoxy[1,2,4]triazolo[1,5-a]pyridin-6-yl}[5-(methoxymethyl)-2,2-dimethylmorpholin-4-yl]methanone] | 63 | 64 |
| COc1cc(C(=O)N2CC(C)(C)OCC2CF)cn2nc(NCc3cccc(Cl)c3)nc12 (racemic) [Example 12, {2-[(3-Chlorobenzyl)amino]-8-methoxy[1,2,4]triazolo[1,5-a]pyridin-6-yl}[5-(fluoromethyl)-2,2-dimethylmorpholin-4-yl]methanone] | 35 | 56 |
| COc1cc(C(=O)N2CC(C)OCC2CCO)cn2nc(NCc3cccc(Cl)c3)nc12 (racemic) [Example 15, {2-[(3-Chlorobenzyl)amino]-8-methoxy[1,2,4]triazolo[1,5-a]pyridin-6-yl}[5-(2-hydroxyethyl)-2-methylmorpholin-4-yl]methanone] | 53 | 75 |
| COc1cc(C(=O)N2CC(C)OCC2(C)C)cn2nc(NCc3cccc(Cl)c3)nc12 (racemic) [Example 26] | 88 | – |
| COc1cc(C(=O)N2CC(C)(CCO)OCC2(C)C)cn2nc(NCc3cccc(Cl)c3)nc12 (racemic) [Example 31, {2-[(3-Chlorobenzyl)amino]-8-methoxy[1,2,4]triazolo[1,5-a]pyridin-6-yl}[2-(2-hydroxyethyl)-2,5,5-trimethylmorpholin-4-yl]methanone] | 11 | 15 |
| COc1cc(C(=O)N2CC(C)OCC2CC(C)(C)O)cn2nc(NCc3cccc(Cl)c3)nc12 (racemic) [Example 42, {2-[(3-Chlorobenzyl)amino]-8-methoxy[1,2,4]triazolo[1,5-a]pyridin-6-yl}[5-(2-hydroxy-2-methylpropyl)-2-methylmorpholin-4-yl]methanone] | 37 | 54 |
| COc1cc(C(=O)N2CC3CCN3C(=O)C2C)cn2nc(N[C@H](C)c3cccc(Cl)c3)nc12 (single isomer, unassigned) [Example 1] | 34 | 33 |
| COc1cc(C(=O)N2CC(C)OC[C@H]2C)cn2nc(NC(CF)c3cccc(Cl)c3)nc12 (single isomer, unassigned) [Example 5] | – | 87 |
| COc1cc(C(=O)N2CC(C)(C)OCC2CF)cn2nc(NCc3cccc(Cl)c3)nc12 (single isomer, unassigned) [Example 13, {2-[(3-Chlorobenzyl)amino]-8-methoxy[1,2,4]triazolo[1,5-a]pyridin-6-yl}[5-(fluoromethyl)-2,2-dimethylmorpholin-4-yl]methanone] | 420 | – |
| COc1cc(C(=O)N2CC(C)OCC2(C)C)cn2nc(NCc3cccc(Cl)c3)nc12 (single isomer, unassigned) [Example 28] | 180 | – |
| COc1cc(C(=O)N2CC(C)(CCO)OCC2(C)C)cn2nc(NCc3cccc(Cl)c3)nc12 (single isomer, unassigned) [Example 32, {2-[(3-Chlorobenzyl)amino]-8-methoxy[1,2,4]triazolo[1,5-a]pyridin-6-yl}[2-(2-hydroxyethyl)-2,5,5-trimethylmorpholin-4-yl]methanone] | 230 | – |
| COc1cc(C(=O)N2CC(C)(CC(C)O)OCC2(C)C)cn2nc(NCc3cccc(Cl)c3)nc12 (single isomer, unassigned) [Example 38, {2-[(3-Chlorobenzyl)amino]-8-methoxy[1,2,4]triazolo[1,5-a]pyridin-6-yl}[2-(2-hydroxypropyl)-2,5,5-trimethylmorpholin-4-yl]methanone] | 2800 | – |
| COc1cc(C(=O)N2CC(C)OCC2CC(C)(C)O)cn2nc(NCc3cccc(Cl)c3)nc12 (single isomer, unassigned) [Example 43, {2-[(3-Chlorobenzyl)amino]-8-methoxy[1,2,4]triazolo[1,5-a]pyridin-6-yl}[5-(2-hydroxy-2-methylpropyl)-2-methylmorpholin-4-yl]methanone] | 81 | – |
| COc1cc(C(=O)N2CC(C)OCC2CC(C)(C)O)cn2nc(NCc3cccc(Cl)c3)nc12 (single isomer, unassigned) [Example 44, {2-[(3-Chlorobenzyl)amino]-8-methoxy[1,2,4]triazolo[1,5-a]pyridin-6-yl}[5-(2-hydroxy-2-methylpropyl)-2-methylmorpholin-4-yl]methanone] | 29 | – |
| COc1cc(C(=O)N2CC(C)(C)OCC2CC(C)O)cn2nc(NCc3cccc(Cl)c3)nc12 (single isomer, unassigned) [Example 46, {2-[(3-Chlorobenzyl)amino]-8-methoxy[1,2,4]triazolo[1,5-a]pyridin-6-yl}[5-(2-hydroxypropyl)-2,2-dimethylmorpholin-4-yl]methanone] | 190 | – |
| COc1cc(C(=O)N2CC(C)(C)OCC2CC(C)O)cn2nc(NCc3cccc(Cl)c3)nc12 (single isomer, unassigned) [Example 47, {2-[(3-Chlorobenzyl)amino]-8-methoxy[1,2,4]triazolo[1,5-a]pyridin-6-yl}[5-(2-hydroxypropyl)-2,2-dimethylmorpholin-4-yl]methanone] | 180 | – |
| COc1cc(C(=O)N2CC(C)(C)OCC2CC(C)O)cn2nc(NCc3cccc(Cl)c3)nc12 (single isomer, unassigned) [Example 48, {2-[(3-Chlorobenzyl)amino]-8-methoxy[1,2,4]triazolo[1,5-a]pyridin-6-yl}[5-(2-hydroxypropyl)-2,2-dimethylmorpholin-4-yl]methanone] | 39 | – |
| COc1cc(C(=O)N2CC(C)(CCO)OCC2CF)cn2nc(NCc3cccc(Cl)c3)nc12 (single isomer, unassigned) [Example 51, {2-[(3-Chlorobenzyl)amino]-8-methoxy[1,2,4]triazolo[1,5-a]pyridin-6-yl}[5-(fluoromethyl)-2-(2-hydroxyethyl)-2-methylmorpholin-4-yl]methanone] | 3500 | – |
| COc1cc(C(=O)N2CC(C)(CCO)OCC2CF)cn2nc(NCc3cccc(Cl)c3)nc12 (single isomer, unassigned) [Example 52, {2-[(3-Chlorobenzyl)amino]-8-methoxy[1,2,4]triazolo[1,5-a]pyridin-6-yl}[5-(fluoromethyl)-2-(2-hydroxyethyl)-2-methylmorpholin-4-yl]methanone] | 1200 | – |
| COc1cc(C(=O)N2CC(C)(CC(C)O)OCC2CF)cn2nc(NCc3cccc(Cl)c3)nc12 (single isomer, unassigned) [Example 57, {2-[(3-Chlorobenzyl)amino]-8-methoxy[1,2,4]triazolo[1,5-a]pyridin-6-yl}[5-(fluoromethyl)-2-(2-hydroxypropyl)-2-methylmorpholin-4-yl]methanone] | 1000 | – |
| [2H]C([2H])(C)O[C@@H]1CC(CO)N(C(=O)c2cc(OC)c3nc(NCc4cccc(Cl)c4)nn3c2)C1 (stereo partly drawn) [Example 73, {2-[(3-Chlorobenzyl)amino]-8-methoxy[1,2,4]triazolo[1,5-a]pyridin-6-yl}[(4R)-4-[(1,1-^2H2)ethyloxy]-2-(hydroxymethyl)pyrrolidin-1-yl]methanone] | – | 39 |
